This is an account of results in article PMC8619434 (Viruses, 2021).

In brackets after ≈: the same amount, converted by molar mass. Where a name gives a salt, the structure may show the parent alone. Read-outs that look alike come from different tables or passages of the source.

One data set relates to VSV-G pseudovirus. In words: microbe, parasite or virus in culture. The format is cell-based, vesicular stomatitis virus. As to conditions: for activity at 10 µM: Pseudovirus, 293T/ACE2, read-out: % Infectivity of VSV-G pv.
A further data set has as its system MERS-CoV-S pseudovirus. In kind it is cell-based.
The subject of data set [1] is SARS-CoV-2 spike protein pseudovirus. In words: microbe, parasite or virus in culture. In kind it is cell-based.
A short description of the next data set: in vitro. The following applies: human.
A further data set concerns SARS-CoV-1-S pseudovirus. In kind it is cell-based.
For a further data set, the system named is 293T-ACE2 cells. The following applies: for % viability (Table S3): 10 µM.
For data set [2] the following is noted: predictions for the uncharged form; ref https://go.drugbank.com; cited from earlier work.
The conditions of data set [3]: values for the salts; ref chemical supplier datasheets; cited from earlier work.
Where [4] appears, read: 293T/ACE2, 48 h, read-out: % Infectivity of SARS-2-Spike pv.
[5] abbreviates: 10 µM; read-out: % infectivity (Table S3, kite-shaped molecules in order of inhibition).
Where [6] appears, read: 293T/ACE2, read-out: IC50 of SARS-CoV-2-S pseudovirus infectivity.

In general, viability refers to a read-out of living cells in per cent, often relative to untreated cells. As for `CCOC(=O)C1OC1C(=O)NC(CC(C)C)C(=O)NCCC(C)C` (stereo not drawn) [E64d], the activity at 10 µM in the data set with VSV-G pseudovirus stood at 105%; in data set [1] (setting [4]), 9%. For the same molecule, the “inhibition of MERS-CoV-S pseudovirus infection” value in the data set with MERS-CoV-S pseudovirus was “inhibited”. The viability in the data set “in vitro” (% Viability of SARS-2-Spike pv) stood at 95%. The “inhibition of SARS-CoV-1-S pseudovirus infection” value with SARS-CoV-1-S pseudovirus was “inhibited”.
Regarding `Cc1cncc(CN2CCC(=C3c4ccc(Cl)cc4CCc4cccnc43)CC2)c1.O=C(O)/C=C/C(=O)O` [Rupatadine Fumarate], the “% viability (Table S3)” value with 293T-ACE2 cells stood at 74%. The activity in data set [1] (setting [5]) worked out at 38%.
On the same counts, the results for `C[C@@H]1CCO[C@H]2Cn3cc(C(=O)NCc4ccc(F)cc4F)c(=O)c(O)c3C(=O)N12` [S/GSK1349572] are 94% and 16.2%.
In general, IC50 refers to the concentration that gives 50% inhibition. Regarding `CN(C)CCC=C1c2ccccc2CCc2ccccc21` [amitriptyline HCl], the activity at 10 µM with VSV-G pseudovirus was 80%; in data set [1] (setting [4]), 9%. Also, in data set [1] (setting [6]), the concentration for half-maximal inhibition (IC50) was determined as 4.98 µM. Besides, the viability in the data set “in vitro” (% Viability of SARS-2-Spike pv) was determined as 112%. For the same molecule, the water solubility a in data set [2] is 0.014 mM. The water solubility b in data set [3] is reported as 99 mM.
On to `CCOC(=O)C1=C(COCCN)NC(C)=C(C(=O)OC)C1c1ccccc1Cl` (stereo not drawn) [amlodipine besylate], for which the “% Infectivity of VSV-G pv” value with VSV-G pseudovirus stood at 100%. The “% Viability of SARS-2-Spike pv” value in the data set with 293T-ACE2 cells (human) is given as 116%. Moreover, the “% Infectivity of SARS-2-Spike pv” value in data set [1] is 19%.
`CN1CC2c3ccccc3Oc3ccc(Cl)cc3C2C1` (stereo not drawn) [asenapine]: the activity at 10 µM in the data set with VSV-G pseudovirus amounted to 71%; in data set [1] (setting [4]), 4%. Moreover, the “combination effect with hydroxychloroquine on SARS-CoV-2 pseudovirus infectivity” value in data set [1] is “additive effects”. In addition, the viability in the data set “in vitro” (% Viability of SARS-2-Spike pv) was found to be 92%. Further, the water solubility a in data set [2] is 0.078 mM (≈ 22.3 µg/mL). For the same molecule, the water solubility b in data set [3] was 9 mM.
For the molecule `CC[C@H]1OC(=O)[C@H](C)[C@@H](O[C@H]2C[C@@](C)(OC)[C@@H](O)[C@H](C)O2)[C@H](C)[C@@H](O[C@@H]2O[C@H](C)C[C@H](N(C)C)[C@H]2O)[C@](C)(O)C[C@@H](C)CN(C)[C@H](C)[C@@H](O)[C@]1(C)O` [azithromycin], in the data set with VSV-G pseudovirus, the “% Infectivity of VSV-G pv” value turned out to be 93%. Also, in the data set on 293T-ACE2 cells (human), the “% Viability of SARS-2-Spike pv” value was 100%. In addition, the “% Infectivity of SARS-2-Spike pv” value in data set [1] turned out to be 3%. Besides, the half-inhibitory concentration (IC50) in data set [1] (setting [6]) worked out at 0.78 µM.
For `Cc1c(-c2ccc(O)cc2)n(Cc2ccc(OCCN3CCCCCC3)cc2)c2ccc(O)cc12.Cl` [bazedoxifene Hcl], in the data set with VSV-G pseudovirus, the “% Infectivity of VSV-G pv” value is given as 13%. Also, the “% Viability of SARS-2-Spike pv” value with 293T-ACE2 cells came to 88%. The “% Infectivity of SARS-2-Spike pv” value in data set [1] is recorded as 3%.
In the case of `COc1cc2c(Oc3ccc4[nH]c(C)cc4c3F)ncnc2cc1OCCCN1CCCC1` [cediranib (AZD217), cediranib], the activity at 10 µM came to 42% in the data set on VSV-G pseudovirus and 5% in data set [1] (setting [4]). Also, the viability in “in vitro” (% Viability of SARS-2-Spike pv) was 85%.
In the case of `CN(C)CCCN1c2ccccc2CCc2ccc(Cl)cc21` [clomipramine HCl], the figures for the activity at 10 µM (in the data set with VSV-G pseudovirus; in data set [1] (setting [4])) were 78% and 9%, respectively. Besides, in the data set “in vitro” (% Viability of SARS-2-Spike pv), the viability was 115%.
As for `Cc1nc2c([nH]1)-c1ccccc1N(C(=O)c1ccc(NC(=O)c3ccccc3-c3ccccc3)cc1)CC2.Cl` [conivaptan hcl], the “% viability (Table S3)” value in the data set with 293T-ACE2 cells was 102%. Further, the activity in data set [1] (setting [5]) came to 52%.
In the case of `CN(C)CCC=C1c2ccccc2C=Cc2ccccc21` [cyclobenzaprine HCl], the activity at 10 µM was 81% with VSV-G pseudovirus and 9% in data set [1] (setting [4]). In addition, the viability in “in vitro” (% Viability of SARS-2-Spike pv) came to 101%.
The matching figures for `CN1CCC(=C2c3ccccc3C=Cc3ccccc32)CC1` [cyproheptadine HCl]: 92%, 17% and 94%.
Consider `CCc1cnn2c(NCc3ccc[n+]([O-])c3)cc(N3CCCC[C@H]3CCO)nc12` [dinaciclib], for which the activity at 10 µM with VSV-G pseudovirus turned out to be 1%; in data set [1] (setting [4]), 0%. The viability in the data set “in vitro” (% Viability of SARS-2-Spike pv) came out at 55%.
On the same counts, the results for `CN1CCC(OC(c2ccccc2)c2ccccc2)CC1` [diphenylpyraline HCl] are 108%, 15% and 106%.
As for `Cc1ccc(NC(=O)c2ccc(CN3CCN(C)CC3)cc2)cc1Nc1nccc(-c2cccnc2)n1` [imatinib mesylate, imatinib], in the data set on 293T-ACE2 cells (human), the “% Viability of SARS-2-Spike pv” value is 22%. The “% Infectivity of SARS-2-Spike pv” value in data set [1] is recorded as 1%.
On the same counts, the results for `Cc1ccc(NC(=O)c2ccc(CN3CCN(C)CC3)cc2)cc1Nc1nccc(-c2cccnc2)n1` [imatinib] are 103% and 81%.
For `CN(C)CCCN1c2ccccc2CCc2ccccc21` [imipramine], the activity at 10 µM came out at 84% in the data set with VSV-G pseudovirus and 16% in data set [1] (setting [4]). For the same molecule, the viability in “in vitro” (% Viability of SARS-2-Spike pv) came to 99%.
As to `CC(C)COc1ccc(CNC(=O)N(Cc2ccc(F)cc2)C2CCN(C)CC2)cc1` [pimavanserin], the figures for the activity at 10 µM (in the data set with VSV-G pseudovirus; in data set [1] (setting [4])) were 72% and 3%, respectively. Further, the viability in the data set “in vitro” (% Viability of SARS-2-Spike pv) is 70%.
`CN1CCN(CCCN2c3ccccc3Sc3ccc(Cl)cc32)CC1` [prochlorperazine]: the activity at 10 µM in the data set on VSV-G pseudovirus was 80%; in data set [1] (setting [4]) it was 16%. The viability in the data set “in vitro” (% Viability of SARS-2-Spike pv) was found to be 94%.
On the same counts, the results for `CC(CN1c2ccccc2Sc2ccccc21)N(C)C` (stereo not drawn) [promethazine HCl] are 107%, 11% and 99%.
Consider `OCCOCCN1CCN(C2=Nc3ccccc3Sc3ccccc32)CC1` [quetiapine], for which the “% viability (Table S3)” value in the data set with 293T-ACE2 cells (human) is 101%. The activity in data set [1] (read-out: % infectivity (Table S3, kite-shaped molecules in order of inhibition); 10 µM) came to 113%.
`O=C(c1ccc(OCCN2CCCCC2)cc1)c1c(-c2ccc(O)cc2)sc2cc(O)ccc12` [raloxifene HCl]: the activity at 10 µM with VSV-G pseudovirus was 65%; in data set [1] (setting [4]) it was 5%. Further, in data set [1] (setting [6]), the half-inhibitory concentration (IC50) worked out at 5.76 µM. The viability in the data set “in vitro” (% Viability of SARS-2-Spike pv) came out at 92%.
For the molecule `O=C(O[C@H]1CN2CCC1CC2)N1CCc2ccccc2[C@@H]1c1ccccc1` [solifenacin succinate], the activity at 10 µM worked out at 86% in the data set on VSV-G pseudovirus and 12% in data set [1] (setting [4]). In the data set “in vitro”, the viability worked out at 99%.
For the molecule `CN1CCN(c2nc(C3=C(c4c[nH]c5ccccc45)C(=O)NC3=O)c3ccccc3n2)CC1` [sotrastaurin], the activity at 10 µM in the data set on VSV-G pseudovirus was 76%; in data set [1] (setting [4]), 8%. Also, in the data set with MERS-CoV-S pseudovirus, the “inhibition of MERS-CoV-S pseudovirus infection” value is given as “non-significant inhibition”. Besides, in data set [1] (setting [6]), the IC50 came to 6.89 µM. Moreover, the viability in “in vitro” (% Viability of SARS-2-Spike pv) was 89%. Moreover, in the data set with SARS-CoV-1-S pseudovirus, the “inhibition of SARS-CoV-1-S pseudovirus infection” value is reported as “significant inhibition”.
With `CC/C(=C(\c1ccccc1)c1ccc(OCCN(C)C)cc1)c1ccccc1` [tamoxifen citrate], the activity at 10 µM was 81% in the data set on VSV-G pseudovirus and 10% in data set [1] (setting [4]). In addition, the viability in “in vitro” (% Viability of SARS-2-Spike pv) is 107%.
Turning to `CCOC(=O)c1ccc(C#Cc2ccc3c(c2)C(C)(C)CCS3)nc1` [tazarotene], the activity at 10 µM is 102% in the data set with VSV-G pseudovirus and 225% in data set [1] (setting [4]). Moreover, the viability in “in vitro” (% Viability of SARS-2-Spike pv) worked out at 107%.
On to `CN1CCN(CCCN2c3ccccc3Sc3ccc(C(F)(F)F)cc32)CC1` [trifluoperazine 2HCl], for which the activity at 10 µM amounted to 80% in the data set on VSV-G pseudovirus and 5% in data set [1] (setting [4]). In the data set on MERS-CoV-S pseudovirus, the “inhibition of MERS-CoV-S pseudovirus infection” value was “non-significant inhibition”. The IC50 in data set [1] (setting [6]) is 3.3 µM. Besides, the viability in “in vitro” (% Viability of SARS-2-Spike pv) was 83%. For the same molecule, the “inhibition of SARS-CoV-1-S pseudovirus infection” value with SARS-CoV-1-S pseudovirus is recorded as “significant inhibition”.
In the case of heparin sodium, in the data set with 293T-ACE2 cells, the “% Viability of SARS-2-Spike pv” value is reported as 98%. For the same molecule, the “% Infectivity of SARS-2-Spike pv” value in data set [1] was 88%.
